Patent US11684638B2, “Targeted delivery system, system components, and methods” (REGENTS OF THE UNIVERSITY OF MINNESOTA, priority 2016, dated 2023)

Legend:
[1] = test system: MSCs; experiment: MSC cell viability, MTS assay; type: cell-based, human
Experimental: Cell viability was determined by MTS assay at 3 days, 5 days, and 7 days. After incubation for the designated time period, Ac4ManNAz-containing medium was exchanged with 500 μL of fresh growth medium and 100 μL of the MTS/PMS solution was added to each well. Cells were further incubated for one hour at 37° C. and soluble formazan produced by the live cells was measured at 490 nm using a microplate reader. Cells without Ac4ManNAz treatment were used as a control.

[2] = test system: MSCs
Experimental: Various Ac4ManNAz concentrations were evaluated as follows. MSCs were seeded onto 96-well plate at a density of 1.5×10^3 cells/well in 150 μL of MSCM supplemented with 0, 1 μM, 5 μM, 10 μM, 20 μM, 50 μM, or 100 μM final concentration of Ac4ManNAz. After three days of incubation, the cells were washed twice with DPBS and treated with sulforhodamine B dibenzocyclooctyl (DBCO-sulforhodamine B) (20 μM final concentration) for one hour. Cells were rinsed five times with DPBS and images were taken using a fluorescence microscope. For quantitative analysis, cells treated with Ac4ManNAz were stained with DBCO-carboxyrhodamine and the fluorescence intensity (λex: 485 and λem: 528 nm) was measured using plate reader (FLx800 microplate fluorescence reader, BioTek Instruments, Inc., Winooski, Vt., USA).
Similarly, various Ac4ManNAz incubation times were evaluated by culturing MSCs in 20 μM Ac4ManNAz for different incubation times. The cells were treated as before for microscopy or quantitation of available azide groups. The treatments were staggered to perform the final analysis at the same time to maintain the cell number at the time of analysis.

[3] = test system: subcutaneous A549-Luc tumors injected with MSC-Az or control MSC; experiment: In vivo click chemistry with intravenous DBCO-Cy5.5; design: species or system athymic nude mice
Experimental: A549-Luc lung tumors were developed in athymic nude mice such that each animal has two tumors, one on each side of the abdomen. When the tumors reached about 100 mm^3, the animals received intratumoral injection (5×10^5 cells/100 μL) of control MSCs in one tumor and MSC-Az in the other tumor of the same animal. One hour following MSC injection, 5 μg of DBCO-Cy5.5 in 100 μL DPBS was injected intravenously per mice. DBCO-Cy5.5 binding to MSC-Az was monitored by imaging at different time intervals (0.5 hour, 1 hour, 5 hours, or 24 hours) using an IVIS Spectrum live animal imager (Xenogen Corp., Alameda, Calif.).

[4] = test system: platinum-resistant C200 ovarian cancer cells; experiment: Cytotoxicity in co-culture […] assay (FIG. 11); type: cell-based
Experimental: FIG. 11. IC50 of glycoengineered MSCs in platinum-resistant C200 ovarian cancer cells in co-culture using […] assay (Corning, Inc., Tewksbury, Mass.). The cytotoxic potential of glycoengineered MSCs was determined by co-culturing with C200 cells using a […] assay at 72 hours. For cytotoxicity assessment, C200 cells (20,000/well) were seeded in lower chamber of 24 well […] plate with different concentrations of glycoengineered MSCs in upper chamber. […] However, when incubated at 1:1 ratio of C200 to glycoengineered-MSCs, 75% cytotoxicity was observed.

[5] = test system: orthotopic ovarian tumors; experiment: Antitumor efficacy of glycoengineered MSC pre-incubated with DBCO-functionalized paclitaxel nanoparticles (FIG. 10); type: in vivo, mice; conditions: Kaplan-Meier; intraperitoneal; 2×10^6 MSC-Az; ABRAXANE at 40 mg/kg paclitaxel on day 0, 4, 8
Experimental: FIG. 10. Antitumor efficacy of glycoengineered MSC pre-incubated with DBCO-functionalized paclitaxel nanoparticles.
Saline-treated animals were used as […] control.

## CC(=O)OC[C@H]1OC(OC(C)=O)[C@@H](NC(=O)CN=[N+]=[N-])[C@@H](OC(C)=O)[C@@H]1OC(C)=O (some centres unmarked) [Ac4ManNAz, N-azidoacetylmannosamine-tetraacylated]
[1]; 100 μM after five days of incubation
  cell viability of MSCs: reduced
[1]; up to 50 μM for seven days
  viability of MSCs: unaffected
[2]; 20 μM in culture media
  azide expression on MSC surface by fluorophore labeling: highest expression levels
[2]; three days of incubation
  surface coverage of azide groups: highest surface coverage of azide groups

## CCN1/C(=C/C=C/C=C/C2=[N+](CCCCCC(=O)NCCC(=O)N3Cc4ccccc4C#Cc4ccccc43)c3ccc4c(S(=O)(=O)[O-])cc(S(=O)(=O)O)cc4c3C2(C)C)C(C)(C)c2c1ccc1c(S(=O)(=O)O)cc(S(=O)(=O)O)cc21 [DBCO-Cy5.5]
[3]; 24 hours post injection
  MSC-Az associated fluorescence in tumor: found even at 24 hours
[3]; one hour post intravenous dosing
  fluorescent label in tumors: detected only in the tumors injected with MSC-Az

## CC(=O)O[C@H]1C(=O)[C@@]2(C)[C@H]([C@H](OC(=O)c3ccccc3)[C@]3(O)C[C@H](OC(=O)[C@H](O)[C@@H](NC(=O)c4ccccc4)c4ccccc4)C(C)=C1C3(C)C)[C@]1(OC(C)=O)CO[C@@H]1C[C@@H]2O [PTX solution, paclitaxel]
[4]
  IC50: 4.16 nM
[5]
  median survival: 50 days
